Source: ChEMBL document CHEMBL1132382 (J Med Chem, 1999)
Values after ≈ are worked out from the molar mass of the structure shown. Values belong to the molecule of their own block, whether it stands above or below them.

Key:
Carbonic anhydrase 4 = biological target: T1, Carbonic anhydrase 4 (Bos taurus, UniProt Q95323)
T1 sequence (Q95323 whole entry): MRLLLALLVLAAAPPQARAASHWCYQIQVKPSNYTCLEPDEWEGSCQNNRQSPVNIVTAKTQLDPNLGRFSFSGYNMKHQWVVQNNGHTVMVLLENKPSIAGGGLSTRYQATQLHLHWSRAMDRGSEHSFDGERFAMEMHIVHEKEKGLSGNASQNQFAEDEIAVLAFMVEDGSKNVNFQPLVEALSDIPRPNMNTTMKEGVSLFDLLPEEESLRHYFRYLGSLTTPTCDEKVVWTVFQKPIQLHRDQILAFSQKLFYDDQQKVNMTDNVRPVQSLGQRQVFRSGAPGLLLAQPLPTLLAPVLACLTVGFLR
Description: Inhibitory activity against bovine carbonic anhydrase IV (CA4), isolated from bovine lung microsomes

Oryctolagus cuniculus [1] = organism: Oryctolagus cuniculus; assay: The compound was evaluated for fall in intraocular pressure (IOP) of Normotensive rabbits after treatment with one drop (50 microL) of a 2% solution at 0 min (pH 6.5); type: functional, Eye
Oryctolagus cuniculus [2] = organism: Oryctolagus cuniculus; assay: The compound was evaluated for fall in intraocular pressure (IOP) of Normotensive rabbits after treatment with one drop (50 microL) of a 2% solution at 30 min (pH 6.5); type: functional, Eye
Oryctolagus cuniculus [3] = organism: Oryctolagus cuniculus; assay: The compound was evaluated for fall in intraocular pressure (IOP) of Glaucomatous rabbits after treatment with one drop (50 microL) of a 2% solution at 60 min (pH 6.5); type: functional, Eye
Oryctolagus cuniculus [4] = organism: Oryctolagus cuniculus; assay: The compound was evaluated for fall in intraocular pressure (IOP) of Glaucomatous rabbits after treatment with one drop (50 microL) of a 2% solution at 90 min (pH 6.5); type: functional, Eye
Oryctolagus cuniculus [5] = organism: Oryctolagus cuniculus; assay: The compound was evaluated for fall in intraocular pressure (IOP) of Normotensive rabbits after treatment with one drop (50 microL) of a 2% solution at 60 min (pH 6.5); type: functional, Eye
Oryctolagus cuniculus [6] = organism: Oryctolagus cuniculus; assay: The compound was evaluated for fall in intraocular pressure (IOP) of Normotensive rabbits after treatment with one drop (50 microL) of a 2% solution at 90 min (pH 6.5); type: functional, Eye
Oryctolagus cuniculus [7] = organism: Oryctolagus cuniculus; assay: The compound was evaluated for fall in intraocular pressure (IOP) of Glaucomatous rabbits after treatment with one drop (50 microL) of a 2% solution at 0 min (pH 6.5); type: functional, Eye
Oryctolagus cuniculus [8] = organism: Oryctolagus cuniculus; assay: The compound was evaluated for fall in intraocular pressure (IOP) of Glaucomatous rabbits after treatment with one drop (50 microL) of a 2% solution at 30 min (pH 6.5); type: functional, Eye
Carbonic anhydrase 1 = Carbonic anhydrase 1 (Homo sapiens, UniProt P00915)
Chain of Carbonic anhydrase 1 (P00915 whole entry): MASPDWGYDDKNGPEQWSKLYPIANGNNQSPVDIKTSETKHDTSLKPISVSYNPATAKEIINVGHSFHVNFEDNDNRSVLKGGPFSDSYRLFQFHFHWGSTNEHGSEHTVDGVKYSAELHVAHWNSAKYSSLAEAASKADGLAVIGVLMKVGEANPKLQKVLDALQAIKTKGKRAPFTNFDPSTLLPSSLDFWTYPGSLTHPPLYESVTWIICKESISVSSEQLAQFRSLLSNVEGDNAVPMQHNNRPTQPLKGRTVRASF
Description: Inhibitory activity against human recombinant carbonic anhydrase I (CA1)

Oryctolagus cuniculus [9] = organism: Oryctolagus cuniculus; assay: The compound was evaluated for fall in intraocular pressure (IOP) of Normotensive rabbits after treatment with one drop (50 microL) of a 2% solution at 30 min (pH 5.5); type: functional, Eye
Oryctolagus cuniculus [10] = organism: Oryctolagus cuniculus; assay: The compound was evaluated for fall in intraocular pressure (IOP) of Normotensive rabbits after treatment with one drop (50 microL) of a 2% solution at 0 min (pH 5.5); type: functional, Eye
Oryctolagus cuniculus [11] = organism: Oryctolagus cuniculus; assay: The compound was evaluated for fall in intraocular pressure (IOP) of Normotensive rabbits after treatment with one drop (50 microL) of a 2% solution at 90 min (pH 5.5); type: functional, Eye
Oryctolagus cuniculus [12] = organism: Oryctolagus cuniculus; assay: The compound was evaluated for fall in intraocular pressure (IOP) of Glaucomatous rabbits after treatment with one drop (50 microL) of a 2% solution at 60 min (pH 6.4); type: functional, Eye
Oryctolagus cuniculus [13] = organism: Oryctolagus cuniculus; assay: The compound was evaluated for fall in intraocular pressure (IOP) of Glaucomatous rabbits after treatment with one drop (50 microL) of a 2% solution at 90 min (pH 6.4); type: functional, Eye
Oryctolagus cuniculus [14] = organism: Oryctolagus cuniculus; assay: The compound was evaluated for fall in intraocular pressure (IOP) of Narmotensive rabbits after treatment with one drop (50 microL) of a 2% solution at 0 min (pH 6.4); type: functional, Eye
Oryctolagus cuniculus [15] = organism: Oryctolagus cuniculus; assay: The compound was evaluated for fall in intraocular pressure (IOP) of Narmotensive rabbits after treatment with one drop (50 microL) of a 2% solution at 30 min (pH 6.4); type: functional, Eye
Oryctolagus cuniculus [16] = organism: Oryctolagus cuniculus; assay: The compound was evaluated for fall in intraocular pressure (IOP) of Narmotensive rabbits after treatment with one drop (50 microL) of a 2% solution at 60 min (pH 6.4); type: functional, Eye
Oryctolagus cuniculus [17] = organism: Oryctolagus cuniculus; assay: The compound was evaluated for fall in intraocular pressure (IOP) of Narmotensive rabbits after treatment with one drop (50 microL) of a 2% solution at 90 min (pH 6.4); type: functional, Eye
Oryctolagus cuniculus [18] = organism: Oryctolagus cuniculus; assay: The compound was evaluated for fall in intraocular pressure (IOP) of Glaucomatous rabbits after treatment with one drop (50 microL) of a 2% solution at 0 min ((pH 6.4); type: functional, Eye
Oryctolagus cuniculus [19] = organism: Oryctolagus cuniculus; assay: The compound was evaluated for fall in intraocular pressure (IOP) of Glaucomatous rabbits after treatment with one drop (50 microL) of a 2% solution at 30 min (pH 6.4); type: functional, Eye
Oryctolagus cuniculus [20] = organism: Oryctolagus cuniculus; assay: The compound was evaluated for fall in intraocular pressure (IOP) of Normotensive rabbits after treatment with one drop (50 microL) of a 2% solution at 60 min (pH 5.5); type: functional, Eye
[21] = not given; remark: listed apart in the source
[22] = octanol/water
Description: Partition coefficient (logD) (chloroform/buffer)

physchem = details: buffer, pH 7.4
Oryctolagus cuniculus [23] = organism: Oryctolagus cuniculus; assay: The compound was evaluated for fall in intraocular pressure (IOP) of Normotensive rabbits after treatment with one drop (50 microL) of a 2% solution at 0 min (pH 6.4); type: functional, Eye
Oryctolagus cuniculus [24] = organism: Oryctolagus cuniculus; assay: The compound was evaluated for fall in intraocular pressure (IOP) of Normotensive rabbits after treatment with one drop (50 microL) of a 2% solution at 90 min (pH 6.4); type: functional, Eye
Oryctolagus cuniculus [25] = organism: Oryctolagus cuniculus; assay: The compound was evaluated for fall in intraocular pressure (IOP) of Normotensive rabbits after treatment with one drop (50 microL) of a 2% solution at 30 min (pH 6.4); type: functional, Eye
Oryctolagus cuniculus [26] = organism: Oryctolagus cuniculus; assay: The compound was evaluated for fall in intraocular pressure (IOP) of Normotensive rabbits after treatment with one drop (50 microL) of a 2% solution at 60 min (pH 6.4); type: functional, Eye

SMILES: CN(CC(=O)Nc1nnc(S(N)(=O)=O)s1)C(=N)N
Ki (Carbonic anhydrase 4): 35 nM
Change in IOP (Oryctolagus cuniculus [1]): 0 mmHg
Change in IOP (Oryctolagus cuniculus [2]): 6.5 mmHg
Change in IOP (Oryctolagus cuniculus [3]): 13.4 mmHg
Change in IOP (Oryctolagus cuniculus [4]): 14.5 mmHg
Change in IOP (Oryctolagus cuniculus [5]): 10.1 mmHg
Change in IOP (Oryctolagus cuniculus [6]): 9.1 mmHg
Change in IOP (Oryctolagus cuniculus [7]): 0 mmHg
Change in IOP (Oryctolagus cuniculus [8]): 8.5 mmHg
Ki (Carbonic anhydrase 1): 170 nM

SMILES: CNCC(=O)/N=c1\sc(S(N)(=O)=O)nn1C
Ki (Carbonic anhydrase 4): 43 nM
Change in IOP (Oryctolagus cuniculus [1]): 0 mmHg
Change in IOP (Oryctolagus cuniculus [2]): 3.3 mmHg
Change in IOP (Oryctolagus cuniculus [5]): 6.2 mmHg
Change in IOP (Oryctolagus cuniculus [6]): 5.5 mmHg
Ki (Carbonic anhydrase 1): 290 nM

SMILES: NCC(=O)NCC(=O)Nc1nnc(S(N)(=O)=O)s1
Ki (Carbonic anhydrase 4): 45 nM
Change in IOP (Oryctolagus cuniculus [12]): 12 mmHg
Change in IOP (Oryctolagus cuniculus [13]): 13.8 mmHg
Change in IOP (Oryctolagus cuniculus [14]): 0 mmHg
Change in IOP (Oryctolagus cuniculus [15]): 5.6 mmHg
Change in IOP (Oryctolagus cuniculus [16]): 9 mmHg
Change in IOP (Oryctolagus cuniculus [17]): 8.9 mmHg
Change in IOP (Oryctolagus cuniculus [18]): 0 mmHg
Change in IOP (Oryctolagus cuniculus [19]): 7.7 mmHg
Ki (Carbonic anhydrase 1): 320 nM

SMILES: CNCC(=O)Nc1cc(Cl)c(S(N)(=O)=O)cc1S(N)(=O)=O
Ki (Carbonic anhydrase 4): 50 nM
Change in IOP (Oryctolagus cuniculus [9]): 2.5 mmHg
Change in IOP (Oryctolagus cuniculus [10]): 0 mmHg
Change in IOP (Oryctolagus cuniculus [20]): 5.2 mmHg
Change in IOP (Oryctolagus cuniculus [11]): 4.5 mmHg
Ki (Carbonic anhydrase 1): 350 nM
kin: 4.6 h⁻¹
kin [21]: 7.9 h⁻¹
logD [22]: 1.569
solubility (physchem): 54 mM (≈ 19.3 mg/mL)

The remaining molecules from weak to strong by Ki (Carbonic anhydrase 4), led by results:

Ki (Carbonic anhydrase 4): 62 nM
Ki (Carbonic anhydrase 1): 50 nM
SMILES: CNCC(=O)Nc1ccc(S(=O)(=O)Nc2ccc(S(N)(=O)=O)cc2)cc1
Change in IOP (Oryctolagus cuniculus [1]): 0 mmHg
Change in IOP (Oryctolagus cuniculus [2]): 2.5 mmHg
Change in IOP (Oryctolagus cuniculus [5]): 6.3 mmHg
Change in IOP (Oryctolagus cuniculus [6]): 5.5 mmHg

Ki (Carbonic anhydrase 4): 56 nM
Ki (Carbonic anhydrase 1): 500 nM
kin: 4.8 h⁻¹
kin [21]: 11.5 h⁻¹
logD [22]: 2.133
solubility (physchem): 59 mM (≈ 25.6 mg/mL)
SMILES: NCC(=O)NCC(=O)Nc1c(S(N)(=O)=O)cc(S(N)(=O)=O)c(Cl)c1Cl
Change in IOP (Oryctolagus cuniculus [23]): 0 mmHg
Change in IOP (Oryctolagus cuniculus [24]): 4.8 mmHg
Change in IOP (Oryctolagus cuniculus [25]): 3.2 mmHg
Change in IOP (Oryctolagus cuniculus [26]): 7 mmHg

Ki (Carbonic anhydrase 4): 55 nM
Ki (Carbonic anhydrase 1): 350 nM
SMILES: NCC(=O)Nc1nnc(S(N)(=O)=O)s1
Change in IOP (Oryctolagus cuniculus [9]): 2.9 mmHg
Change in IOP (Oryctolagus cuniculus [10]): 0 mmHg
Change in IOP (Oryctolagus cuniculus [11]): 4.6 mmHg
